Test results published in ChEMBL document CHEMBL4184192, “5-HT1A and 5-HT2A receptors affinity, docking studies and pharmacological evaluation of a series of 8-acetyl-7-hydroxy-4-methylcoumarin derivatives” (Bioorg Med Chem, 2018).
Calls of active or inactive are those of the source. The calls are words filed in the database; no cut-off is given here.

Assays:
[1] = target: T1, 5-hydroxytryptamine receptor 1A (Homo sapiens, UniProt P08908); experiment: Displacement of [3H]-8-OH-DPAT from human 5-HT1A receptor expressed in CHO-K1 cell membranes after 60 mins by microbeta scintillation counting analysis
T1 sequence (P08908 whole entry): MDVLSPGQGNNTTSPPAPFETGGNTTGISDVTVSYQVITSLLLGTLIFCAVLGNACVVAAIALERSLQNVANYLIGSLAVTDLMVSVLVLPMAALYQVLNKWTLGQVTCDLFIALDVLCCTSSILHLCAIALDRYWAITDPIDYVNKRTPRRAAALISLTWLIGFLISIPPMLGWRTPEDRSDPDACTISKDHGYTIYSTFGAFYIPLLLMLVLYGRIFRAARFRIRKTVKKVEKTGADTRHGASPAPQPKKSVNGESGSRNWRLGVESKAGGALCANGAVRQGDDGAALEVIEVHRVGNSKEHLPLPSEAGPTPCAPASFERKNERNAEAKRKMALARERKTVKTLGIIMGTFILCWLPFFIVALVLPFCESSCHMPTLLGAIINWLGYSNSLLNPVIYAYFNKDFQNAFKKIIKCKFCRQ

[2] = target: 5-hydroxytryptamine receptor 2A (Homo sapiens, UniProt P28223); experiment: Displacement of [3H]-ketanserin from human 5-HT2A receptor expressed in CHO-K1 cell membranes after 60 mins by microbeta scintillation counting analysis; assay type: cell-based
Chain of 5-hydroxytryptamine receptor 2A (P28223 whole entry): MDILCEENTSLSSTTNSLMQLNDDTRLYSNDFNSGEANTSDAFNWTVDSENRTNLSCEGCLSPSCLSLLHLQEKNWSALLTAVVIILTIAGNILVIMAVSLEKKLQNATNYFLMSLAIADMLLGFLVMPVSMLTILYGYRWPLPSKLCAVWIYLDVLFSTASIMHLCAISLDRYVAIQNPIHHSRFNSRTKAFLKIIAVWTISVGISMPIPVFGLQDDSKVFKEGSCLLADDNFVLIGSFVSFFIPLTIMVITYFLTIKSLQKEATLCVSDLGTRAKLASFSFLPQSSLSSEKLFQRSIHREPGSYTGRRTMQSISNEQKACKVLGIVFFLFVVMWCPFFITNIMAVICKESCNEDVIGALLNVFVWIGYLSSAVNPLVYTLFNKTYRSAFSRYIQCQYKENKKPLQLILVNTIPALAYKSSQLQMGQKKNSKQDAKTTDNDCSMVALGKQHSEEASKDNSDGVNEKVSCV

[3] = target: T2, 5-hydroxytryptamine receptor 1A (Rattus norvegicus) (UniProt P19327); experiment: Agonist activity at 5-HT1A receptor in Sprague-Dawley rat hippocampal membranes at 10^-10 to 10^-5 M after 90 mins by microbeta scintillation counting based [35S]GTPgammaS binding assay relative to control; assay type: functional
T2 sequence (whole entry): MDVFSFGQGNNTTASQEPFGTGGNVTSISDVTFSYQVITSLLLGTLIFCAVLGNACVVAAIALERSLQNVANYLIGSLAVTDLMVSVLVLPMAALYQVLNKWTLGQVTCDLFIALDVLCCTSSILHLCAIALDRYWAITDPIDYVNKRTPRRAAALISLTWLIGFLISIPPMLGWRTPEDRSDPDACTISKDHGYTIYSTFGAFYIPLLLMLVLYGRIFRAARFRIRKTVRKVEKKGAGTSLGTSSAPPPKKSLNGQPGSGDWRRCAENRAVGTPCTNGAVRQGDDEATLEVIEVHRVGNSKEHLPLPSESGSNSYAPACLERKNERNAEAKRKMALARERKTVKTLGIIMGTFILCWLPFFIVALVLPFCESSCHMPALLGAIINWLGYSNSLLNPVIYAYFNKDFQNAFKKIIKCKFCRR

[4] = target: T3, 5-hydroxytryptamine receptor 1A (Rattus norvegicus, UniProt P19327); experiment: Agonist activity at 5-HT1A receptor in Sprague-Dawley rat hippocampal membranes after 90 mins by microbeta scintillation counting based [35S]GTPgammaS binding assay; assay type: functional
T3 sequence (P19327 whole entry): T2 sequence (whole entry)

[5] = target: T2, 5-hydroxytryptamine receptor 1A (Rattus norvegicus); experiment: Antagonist activity at 5-HT1A receptor in Sprague-Dawley rat hippocampal membranes assessed as inhibition of 8-OH-DPAT-induced receptor activation at 10^-10 to 10^-5 M after 90 mins by microbeta scintillation counting based [35S]GTPgammaS binding assay relative to control; assay type: functional
[6] = target: T3, 5-hydroxytryptamine receptor 1A; experiment: Antagonist activity at 5-HT1A receptor in Sprague-Dawley rat hippocampal membranes assessed as inhibition of 8-OH-DPAT-induced receptor activation after 90 mins by microbeta scintillation counting based [35S]GTPgammaS binding assay; assay type: functional
[7] = system: Mus musculus; experiment: Toxicity in Balb/c mouse assessed as alterations in despair-related locomotor activity at 0.3 to 10 mg/kg, ip administered 30 mins prior to test; assay type: organism-based; details: in vivo, 0.5 h
[8] = system: Mus musculus; experiment: Toxicity in Balb/c mouse assessed as alterations in visible locomotor activity at 0.3 to 10 mg/kg, ip administered 30 mins prior to test; assay type: organism-based; details: in vivo, 0.5 h
[9] = system: Mus musculus; experiment: Pro-depressant activity in Balb/c mouse assessed as decrease in immobility time administered ip 30 mins prior to test measured for 6 mins by tail suspension test; assay type: ADME, organism-based; details: in vivo, 0.1 h
[10] = system: Mus musculus; experiment: Antidepressant activity in Balb/c mouse assessed as decrease in immobility time at 0.3 to 1 mg/kg, ip administered 30 mins prior to test measured for 6 mins by tail suspension test; assay type: functional, organism-based
[11] = system: Mus musculus; experiment: Pro-depressant activity in Balb/c mouse assessed as decrease in immobility time at 3 to 10 mg/kg, ip administered 30 mins prior to test measured for 6 mins by tail suspension test; assay type: ADME, organism-based; details: in vivo, 0.1 h
[12] = species: Mus musculus; experiment: Pro-depressant activity in Balb/c mouse assessed as decrease in home cage activity; assay type: ADME, organism-based; details: in vivo
[13] = system: Mus musculus; experiment: Antidepressant activity in Balb/c mouse assessed as decrease in immobility time administered ip 30 mins prior to test measured for 6 mins by tail suspension test; assay type: functional, organism-based

SMILES	Ki [1]	Ki [2]	also measured
CC(=O)c1c(OCCCCN2CCN(c3ccccc3Br)CC2)ccc2c(C)cc(=O)oc12	1.5 nM	10 nM	–
CC(=O)c1c(OCCCN2CCN(c3cccc(Br)c3)CC2)ccc2c(C)cc(=O)oc12	3.5 nM	6 nM	–
CC(=O)c1c(OCCCCN2CCN(c3ccccc3C(F)(F)F)CC2)ccc2c(C)cc(=O)oc12	11 nM	48.7 nM	–
CC(=O)c1c(OCCCCN2CCN(c3ccccc3Cl)CC2)ccc2c(C)cc(=O)oc12	0.9 nM	20 nM	–
CC(=O)c1c(OCCCCN2CCN(c3cc(C)cc(C)c3)CC2)ccc2c(C)cc(=O)oc12	3.7 nM	58 nM	–
CC(=O)c1c(OCCCCN2CCN(c3cc(C)ccc3C)CC2)ccc2c(C)cc(=O)oc12	5.4 nM	46.8 nM	–
CC(=O)c1c(OCCCCN2CCN(c3cccc(F)c3)CC2)ccc2c(C)cc(=O)oc12	50 nM	400 nM	–
COc1ccccc1N1CCN(CCCOc2ccc3c(C)cc(=O)oc3c2C(C)=O)CC1	0.6 nM	8 nM	Emax [3]: 108%; EC50 [4]: 2 nM; inhibition [5]: 70%; EC50 [6]: 631 nM; Activity [7]: Non-Toxic; Activity [8]: Non-Toxic
COc1ccccc1N1CCN(CCCCOc2ccc3c(C)cc(=O)oc3c2C(C)=O)CC1	1 nM	56 nM	–
CC(=O)c1c(OCCCN2CCN(c3cc(C)ccc3C)CC2)ccc2c(C)cc(=O)oc12	14 nM	102 nM	–
CC(=O)c1c(OCCCN2CCN(c3ccccc3Cl)CC2)ccc2c(C)cc(=O)oc12	2 nM	22 nM	–
CC(=O)c1c(OCCCN2CCN(c3ccccc3Br)CC2)ccc2c(C)cc(=O)oc12	0.5 nM	7 nM	Emax [3]: 112%; EC50 [4]: 39.8 nM; inhibition [5]: 82%; EC50 [6]: 126 nM; Activity [9]: Dose-dependent effect; Activity [10]: inactive; Activity [11]: Toxic; Activity [12]: Toxic
CC(=O)c1c(OCCCCN2CCN(c3cccc(Br)c3)CC2)ccc2c(C)cc(=O)oc12	2.5 nM	6.5 nM	–
CNCCC(Oc1ccc(C(F)(F)F)cc1)c1ccccc1 (configuration not stated)	–	–	Activity [13]: Dose-dependent effect
CC(=O)c1c(OCCCN2CCN(c3cccc(F)c3)CC2)ccc2c(C)cc(=O)oc12	1350 nM	408 nM	–
CC(=O)c1c(OCCCN2CCN(c3ccccc3C(F)(F)F)CC2)ccc2c(C)cc(=O)oc12	8.8 nM	20 nM	–
CC(=O)c1c(OCCCN2CCN(c3cc(C)cc(C)c3)CC2)ccc2c(C)cc(=O)oc12	0.9 nM	12.5 nM	–
